From patent US8343934B2, “Diverse lead compound autotaxin inhibitors” (University of Memphis, priority 2009, dated 2013)

Molecular target: T1, ATX (Homo sapiens, UniProt Q13822)
T1 construct: conditioned serum-free medium (CCM) from MDA-MB-435 cells as the source of ATX; endogenous in cells; host or cells: MDA-MB-435 cells (about 10x concentrated conditioned serum-free medium)
Assay: ATX inhibition assay (FS-3 substrate)
Assay type: biochemical
Conditions: for % Response: preliminary screen, FS-3 hydrolysis at one hour, normalized to vehicle control, mean±S.D., same values given at 10 μM in Table 5
Procedure, shortened: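 Conditioned serum-free medium from MDA-MB-435 cells served as the ATX source. FS-3 hydrolysis was followed by fluorescence (ex 485/em 528 nm) at 37 °C, read every minute, in Tris pH 8.0 buffer with Ca2+, Mg2+ and 30 μM fatty-acid-free BSA. Readings were blank-subtracted without medium and normalized to vehicle.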

[1] = Calculated IC50 data for the 30 active compounds, FS-3 substrate

Compound | % Response | IC50 [1] | % ATX Acitivity (10 μM) (10 μM compound, FS-3 substrate) | IC50 (Table 5, FS-3 substrate)
COc1ccc(/C=N/NC(=O)C(=O)N/N=C/c2ccc(OC)c(S(=O)(=O)O)c2)cc1S(=O)(=O)O [compound 56207] | 100 ± 4.2% | – | – | –
Nc1c(N=Nc2ccc([N+](=O)[O-])cc2)c(S(=O)(=O)O)cc2cc(S(=O)(=O)O)c(N=Nc3ccc(-c4ccc(N=Nc5ccc(O)cc5)cc4)cc3)c(O)c12.[Na+] [compound 7234] | 49 ± 6.1% | 7.02 µM | – | –
COc1ccccc1N=Nc1c(S(=O)(=O)O)cc2cc(NC(=O)Nc3ccc4c(O)c(N=Nc5c(N)ccc6cc(S(=O)(=O)O)ccc56)c(S(=O)(=O)O)cc4c3)ccc2c1O [compound 45622] | 16 ± 3.1% | 11.6 µM | – | –
O=C(Nc1ccc2c(O)c(N=Nc3ccccc3)c(S(=O)(=O)O)cc2c1)Nc1ccc2c(O)c(N=Nc3ccc4cc(S(=O)(=O)O)ccc4c3)c(S(=O)(=O)O)cc2c1.[H-].[Na+] [compound 65573] | 39 ± 3.8% | 19.1 µM | – | –
Nc1ccc(N=Nc2ccc(-c3ccc(N=Nc4c(S(=O)(=O)O)cc5cc(S(=O)(=O)O)c(N=Nc6cccc([N+](=O)[O-])c6)c(N)c5c4O)cc3)cc2)c(N)c1.[Na+] [compound 79593] | 37 ± 2.6% | 6.36 µM | – | –
O=C(/C=C/c1ccc(O)c(O)c1)NCC(=O)NC(Cc1ccccc1)C(=O)O (centres unmarked) [compound 332542] | 96 ± 3.7% | – | – | –
O=C(Nc1ccc(C(=O)Nc2ccc3c(O)cc(S(=O)(=O)O)cc3c2)cc1)c1ccccc1.[Na+] [compound 37215] | 79 ± 3.7% | – | – | –
O=C1C(Cl)=C(Nc2ccc(C(=O)Nc3ccc4cc(S(=O)(=O)O)cc(S(=O)(=O)O)c4c3)cc2)C(=O)C(Cl)=C1Nc1ccc(C(=O)Nc2ccc3cc(S(=O)(=O)O)cc(S(=O)(=O)O)c3c2)cc1 [NSC 12859] | – | – | 27 ± 2.8% | 0.805 µM
Nc1ccc(N=Nc2ccc(-c3ccc(N=Nc4c(S(=O)(=O)O)cc5cc(S(=O)(=O)O)c(N=Nc6ccc([N+](=O)[O-])cc6)c(N)c5c4O)cc3)cc2)c2cc(S(=O)(=O)O)ccc12.Nc1ccc(N=Nc2ccc(-c3ccc(N=Nc4c(S(=O)(=O)O)cc5cc(S(=O)(=O)O)c(N=Nc6ccc([N+](=O)[O-])cc6)c(N)c5c4O)cc3)cc2)c2ccc(S(=O)(=O)O)cc12 [compound 77520] | 32 ± 2.7% | 4.07 µM | – | –
O=C(/C=C\c1ccc(NCc2ccc(C(=O)O)cc2)cc1)CCl [compound 106024] | 62 ± 2.5% | – | – | –
O=C(N/N=C/c1ccc(O)c(S(=O)(=O)O)c1)C(=O)N/N=C/c1ccc(O)c(S(=O)(=O)O)c1.[Na+] [compound 55736] | 95 ± 3.9% | – | – | –
Cc1ccccc1N=C(N)Nc1ccccc1C.Nc1c(N=Nc2ccc([N+](=O)[O-])cc2)c(S(=O)(=O)O)cc2cc(S(=O)(=O)O)c(N=Nc3ccc(Sc4ccc(N=Nc5ccc(O)cc5)cc4)cc3)c(O)c12 [compound 80902] | 73 ± 4.5% | – | – | –
Cc1cc(C(O)(c2ccc(Nc3ccccc3)cc2)c2ccc(Nc3ccc(S(=O)(=O)O)cc3)cc2)ccc1N.[Na+] (centres unmarked) [compound 5014] | 39 ± 4.3% | 1.27 µM | – | –
O=C(N/N=C\c1ccc(O)c(S(=O)(=O)O)c1)N/N=C/c1ccc(O)c(S(=O)(=O)O)c1.[Na+] [compound 48776] | 94 ± 3.5% | – | – | –
Nc1ccc2cc(S(=O)(=O)[O-])c(N=Nc3ccc(-c4ccc(N=Nc5c(S(=O)(=O)[O-])cc6cc(S(=O)(=O)[O-])cc(N)c6c5O)cc4)cc3)c(O)c2c1.[Na+].[Na+].[Na+] [compound 75779] | 20 ± 5.7% | 1.26 µM | – | –
